{
  "source": "patent US5410031A",
  "about": "“Nucleoside cotransporter protein cDNA” (The Regents of the University of California Office of …, priority 1992, dated 1995)",
  "key": {"[1]": {"test_system": "SNST1c (chimeric Na+/nucleoside cotransporter SNST1)", "test": "22Na+ uptake in the presence of potential substrates in oocytes expressing SNST1c", "format": "cell-based, rabbit", "details": "SNST1c-injected oocytes", "method": "(§1) Oocyte injections. Xenopus oocytes were dissected and injected, and transport was measured as described below. Stage V and VI oocytes (Dumont, J. Morphol. 136:153-180 (1972)) from Xenopus laevis (Xenopus One, Ann Arbor, Mich.) were dissected and defolliculated as described by Hediger et al., Proc. Natl. Acad. Sci. USA 84:2634-2637 (1987) and Coady et al., Arch. Biochem. Biophys. 265:73-81 (1990), both of which are incorporated by reference herein. Briefly, oocytes were hand-dissected from ovarian tissue of adult female Xenopus laevis. Individual oocytes were obtained by gentle agitation in Barth's solution (Silbernagl, Physiol. Rev. 68:912-1007 (1988)) 1.0% collagenase (to remove follicular cells) and 0.1% trypsin inhibitor for 60 min followed by a 30 to 60 min incubation in 100 mM K2 HP04, pH 6.5, 0.1% BSA (modified from Dumont, J. Morphol. 136:153-179 (1972)). Oocytes were maintained in Barth's solution at 18° C. After 16 to 24 hr, the healthy oocytes were injected with 50 nl of water or mRNA (0.2 to 1 mg/ml) and incubated in Barth's solution with gentamicin at 18° C. for another 3 to 8 days.\n(§2) Na^+ /nucleoside transporter activity was assayed by measuring the Na^+ -dependent uptake by the chimeric construct, SNST1c. […] Because of the sequence similarity to SGLT1, it was hypothesized that the transport would be Na^+ -dependent. Therefore, the uptake of ^22 Na^+ in the presence of potential substrates was monitored.\n(§3) Measurements were made of [^3 H] uridine uptake in oocytes expressing SNST1c (FIG. 4A and 4B). Uptakes were measured over 5 min in a buffer containing either 100 mM NaCl, choline chloride or LiCl as described by Coady et al., Arch. Biochem. Biophys. 283:130-134 (1990), incorporated by reference herein. [All of the solutions contained 2 mM KCL, 1 mM MgCl2, 1 mM CaCl2, 10 mM HEPES/Tris, pH 7.5 and either 100 mM NaCl (Na^+ transport buffer) or 100 mM choline-Cl (choline transport buffer). The uptake solutions contained radiolabeled substrate while the wash solutions contained nonradioactive substrate. Oocytes were injected with water as a control, or SNST1c cRNA (50 ng). Oocytes were preincubated for 30 min in substrate-free choline transport buffer when uptakes in Na^+ and choline were to be compared. Transport of substrate was assayed by placing 4-6 oocytes in 0.5 ml of radioactive uptake solution, preceded by a 30 min preincubation in a Na^+ -free (100 mM choline-Cl) solution when Na^+ -dependent transport was to be measured. Transport was stopped by washing the oocytes five times with 4 ml of ice-cold choline solution containing excess unlabeled substrate. The oocytes were individually dissolved in 1.0 ml of 10% SDS and assayed for radioactivity. All data are expressed as mean ±SD. FIG. 4A indicates cation dependence of 1 μM [^3 H]uridine uptake in oocytes expressing SNST1c 4 days post-injection. In addition, inhibition of 0.6 μM [^3 H] uridine uptake in oocytes by 1 mM nucleosides was determined (FIG. 4B). Uptakes were measured in Na^+ containing buffer (Coady et al., supra) Oocytes were injected with water as a control, or SNST1c cRNA (50 ng) ."}, "[2]": {"test_system": "SNST1c (chimeric Na+/nucleoside cotransporter SNST1)", "test": "Uptake of radiolabelled substrates in Xenopus oocytes expressing SNST1c", "format": "cell-based, rabbit", "details": "for transport of radiolabelled substrate by SNST1c: Xenopus oocytes injected with SNST1c RNA", "method": "as §1, §2, §3"}, "[3]": {"test_system": "SNST1c (expressed Na+/nucleoside cotransporter)", "test": "Inhibition of [3H]uridine / radiolabeled nucleoside uptake in oocytes expressing SNST1c", "format": "cell-based, rabbit", "details": "for inhibition of [3H]uridine transport by SNST1c: 1 mM nucleoside, 0.6 μM [3H]uridine, Na+ containing buffer (FIG. 4B)", "method": "as §3\nUptake of radiolabeled nucleosides into Xenopus oocytes was measured in the presence or absence of Na^+ as described above in Example 1, and in the presence and absence of 1 mM phloridzin (Sigma, St. Louis, Mo.). […]"}, "[4]": {"test_system": "Na+/glucose cotransporter SGLT1", "details": "SGLT1-injected oocytes", "quoted_text": "Xenopus oocytes were dissected and injected, and transport was measured as described below. […] Briefly, oocytes were hand-dissected from ovarian tissue of adult female Xenopus laevis. […] Oocytes were maintained in Barth's solution at 18° C. After 16 to 24 hr, the healthy oocytes were injected with 50 nl of water or mRNA (0.2 to 1 mg/ml) and incubated in Barth's solution with gentamicin at 18° C. for another 3 to 8 days.\n[All of the solutions contained 2 mM KCL, 1 mM MgCl2, 1 mM CaCl2, 10 mM HEPES/Tris, pH 7.5 and either 100 mM NaCl (Na^+ transport buffer) or 100 mM choline-Cl (choline transport buffer). The uptake solutions contained radiolabeled substrate while the wash solutions contained nonradioactive substrate. Oocytes were injected with water as a control, or SNST1c cRNA (50 ng). […] Transport of substrate was assayed by placing 4-6 oocytes in 0.5 ml of radioactive uptake solution, preceded by a 30 min preincubation in a Na^+ -free (100 mM choline-Cl) solution when Na^+ -dependent transport was to be measured. […] The oocytes were individually dissolved in 1.0 ml of 10% SDS and assayed for radioactivity. All data are expressed as mean ±SD. […] Uptakes were measured in Na^+ containing buffer (Coady et al., supra) Oocytes were injected with water as a control, or SNST1c cRNA (50 ng) ."}, "[5]": {"test_system": "oocyte transporter (Na+/nucleoside cotransport in the oocyte membrane)", "test": "Inhibition of endogenous Na+/nucleoside cotransport in the oocyte membrane", "format": "cell-based, Xenopus laevis", "details": "endogenous transport of the oocyte membrane", "method": "as §3, with “Transport was stopped by washing the oocytes five times with 4 ml of ice-cold choline solution containing excess unlabeled substrate.” left out, “FIG. 4A indicates cation dependence of 1 μM [^3 H]uridine uptake in oocytes expressing SNST1c 4 days post-injection. In addition, inhibition of 0.6 μM [^3 H] uridine uptake in oocytes by 1 mM nucleosides was determined (FIG. 4B).” left out"}, "[6]": {"test_system": "Na+/glucose cotransporter protein", "details": "cited from earlier work"}, "[7]": {"test_system": "Na+/nucleoside cotransport in the kidney brush border", "details": "Lee et al. 1990; cited from earlier work"}, "[8]": {"test_system": "SNST1c (chimeric Na+/nucleoside cotransporter SNST1)", "test": "Uptake of radiolabelled substrates in Xenopus oocytes expressing SNST1c", "format": "cell-based, rabbit", "details": "oocytes printed as SGLT1c, n=6 oocytes"}},
  "data": [
    {"compound": "C[C@H](CCC(=O)O)[C@H]1CC[C@H]2[C@@H]3[C@H](O)C[C@@H]4C[C@H](O)CC[C@]4(C)[C@H]3C[C@H](O)[C@]12C", "note": "[cholate]", "values": [
      {"measurement": "signal of 22Na+ uptake in the presence of potential substrate", "setting": "[1]", "value": "no signals"}
    ]},
    {"compound": "CC(O)C(=O)O", "note": "(stereo not shown) [lactate]", "values": [
      {"measurement": "transport of radiolabelled substrate by SNST1c", "setting": "[2]", "value": "none of these was transported"}
    ]},
    {"compound": "O=c1ccn([C@@H]2O[C@H](CO)[C@@H](O)[C@H]2O)c(=O)[nH]1", "note": "[uridine]", "values": [
      {"measurement": "3H-uridine uptake", "setting": "[2]; SNST1c-injected oocytes, n=5 oocytes", "value": "722±108 fmol ^3 H-uridine/oocyte/hr"},
      {"measurement": "transport of radiolabelled substrate by SNST1c", "setting": "[2]", "value": "transported"},
      {"measurement": "inhibition of [3H]uridine transport by SNST1c", "setting": "[3]", "value": "inhibited"},
      {"measurement": "3H-uridine uptake", "setting": "[4]; n=5 oocytes", "value": "309±78 fmol ^3 H-uridine/oocyte/hr"}
    ]},
    {"compound": "O=C(O)CCCC[C@@H]1SC[C@@H]2NC(=O)N[C@@H]21", "note": "[biotin]", "values": [
      {"measurement": "transport of radiolabelled substrate by SNST1c", "setting": "[2]", "value": "none of these was transported"}
    ]},
    {"compound": "O=C(O)CCC(=O)O", "note": "[succinate]", "values": [
      {"measurement": "transport of radiolabelled substrate by SNST1c", "setting": "[2]", "value": "none of these was transported"}
    ]},
    {"compound": "Cc1ncc(C[n+]2csc(CCO)c2C)c(N)n1", "note": "[thiamine]", "values": [
      {"measurement": "signal of 22Na+ uptake in the presence of potential substrate", "setting": "[1]", "value": "no signals"}
    ]},
    {"compound": "Nc1ccn([C@H]2CC[C@@H](CO)O2)c(=O)n1", "note": "[dideoxycytidine]", "values": [
      {"measurement": "inhibition of the oocyte Na+/nucleoside transporter", "setting": "[5]", "value": "did not inhibit"}
    ]},
    {"compound": "O[C@H]1[C@H](O)[C@@H](O)[C@H](O)[C@@H](O)[C@H]1O", "note": "[myoinositol]", "values": [
      {"measurement": "signal of 22Na+ uptake in the presence of potential substrate", "setting": "[1]", "value": "no signals"}
    ]},
    {"compound": "NCCS(=O)(=O)O", "note": "[taurine]", "values": [
      {"measurement": "transport of radiolabelled substrate by SNST1c", "setting": "[2]", "value": "none of these was transported"}
    ]},
    {"compound": "O=c1ccn([C@H]2C[C@H](O)[C@@H](CO)O2)c(=O)[nH]1", "note": "[2-deoxyuridine]", "values": [
      {"measurement": "inhibition of [3H]uridine transport by SNST1c", "setting": "[3]", "value": "inhibited"}
    ]},
    {"compound": "NCCCC[C@H](N)C(=O)O", "note": "[lysine]", "values": [
      {"measurement": "transport of radiolabelled substrate by SNST1c", "setting": "[2]", "value": "none of these was transported"}
    ]},
    {"compound": "C[C@H](N)C(=O)O", "note": "[alanine]", "values": [
      {"measurement": "transport of radiolabelled substrate by SNST1c", "setting": "[2]", "value": "none of these was transported"}
    ]},
    {"compound": "O=C(CCc1ccc(O)cc1)c1c(O)cc(O)cc1O[C@@H]1O[C@H](CO)[C@@H](O)[C@H](O)[C@H]1O", "note": "[Phloridzin]", "values": [
      {"measurement": "inhibition of the expressed Na+/nucleoside cotransporter", "setting": "[3]; 1 mM phloridzin, n=2, Xenopus oocytes", "value": 87, "unit": "%"},
      {"measurement": "IC50", "setting": "[6]; mammalian intestine and kidney, competitive inhibition, read-out: concentration for fifty percent inhibition of sodium dependent sugar transport", "value": 5, "unit": "µM"},
      {"measurement": "inhibition of Na+/nucleoside cotransport in the kidney brush border", "setting": "[7]", "value": "inhibits"}
    ]},
    {"compound": "Nc1ncnc2c1ncn2[C@@H]1O[C@H](CO)[C@@H](O)[C@H]1O", "note": "[adenosine]", "values": [
      {"measurement": "inhibition of [3H]uridine transport by SNST1c", "setting": "[3]", "value": "inhibited"}
    ]},
    {"compound": "CNC(C)(C)C(=O)O", "note": "[methyl-aminoisobutyric acid]", "values": [
      {"measurement": "transport of radiolabelled substrate by SNST1c", "setting": "[2]", "value": "none of these was transported"}
    ]},
    {"compound": "O=C(O)[C@@H]1CCCN1", "note": "[proline]", "values": [
      {"measurement": "transport of radiolabelled substrate by SNST1c", "setting": "[2]", "value": "none of these was transported"}
    ]},
    {"compound": "Nc1nc2c(ncn2[C@@H]2O[C@H](CO)[C@@H](O)[C@H]2O)c(=O)[nH]1", "note": "[guanosine]", "values": [
      {"measurement": "inhibition of [3H]uridine transport by SNST1c", "setting": "[3]", "value": "inhibited"}
    ]},
    {"compound": "Nc1ccn([C@@H]2O[C@H](CO)[C@@H](O)[C@H]2O)c(=O)n1", "note": "[cytidine]", "values": [
      {"measurement": "inhibition of [3H]uridine transport by SNST1c", "setting": "[3]", "value": "inhibited"}
    ]},
    {"compound": "N[C@@H](Cc1ccccc1)C(=O)O", "note": "[phenylalanine]", "values": [
      {"measurement": "transport of radiolabelled substrate by SNST1c", "setting": "[2]", "value": "none of these was transported"}
    ]},
    {"compound": "3-O-methylglucose", "values": [
      {"measurement": "transport of radiolabelled substrate by SNST1c", "setting": "[2]", "value": "none of these was transported"}
    ]},
    {"compound": "O=C(CCc1ccc(O)cc1)c1c(O)cc(O[C@@H]2O[C@H](CO)[C@@H](O)[C@H](O)[C@H]2O)cc1O", "note": "[4' glycoside]", "values": [
      {"measurement": "activity as inhibitor of glucose transport", "setting": "[6]; Diedrich 1990", "value": "inactive"}
    ]},
    {"compound": "C[N+](C)(C)CC(=O)O", "note": "[betaine]", "values": [
      {"measurement": "signal of 22Na+ uptake in the presence of potential substrate", "setting": "[1]", "value": "no signals"}
    ]},
    {"compound": "CO[C@H]1O[C@H](CO)[C@@H](O)[C@H](O)[C@H]1O", "note": "[αMDG, α-methyl-D-glucopyranose]", "values": [
      {"measurement": "transport of radiolabelled substrate by SNST1c", "setting": "[2]", "value": "none of these was transported"},
      {"measurement": "signal of 22Na+ uptake in the presence of potential substrate", "setting": "[1]", "value": "no signals"},
      {"measurement": "14C-αMDG uptake", "setting": "[4]; n=6 oocytes", "value": "70±19", "unit": "pmol ^14 C-αMDG/oocyte/hr"},
      {"measurement": "14C-αMDG uptake", "setting": "[8]", "value": "0.5±0.1", "unit": "pmol ^14 C-αMDG/oocyte/hr"}
    ]}
  ]
}
